Reference: patent US7226925B2, “Compounds, their use and preparation” (Biovitrum AB, priority 2002, dated 2007)
Structures can show the parent of a compound that is named as a salt.

How the values were obtained:
human 5-HT2C receptor [1] = biological target: T1, human 5-HT2C receptor (Homo sapiens, UniProt P28335); assay: In vitro functional assay, intracellular calcium mobilisation in transfected HEK293 cells (FLUO-3); assay type: cell-based; conditions: for EC50: calcium mobilisation, HEK293 cells; for Efficacy 5-HT2C: maximum response at 1 μM relative to maximum response of 5-HT at 1 μM
T1 construct: expressed in transfected cells
T1 sequence (P28335 33-458): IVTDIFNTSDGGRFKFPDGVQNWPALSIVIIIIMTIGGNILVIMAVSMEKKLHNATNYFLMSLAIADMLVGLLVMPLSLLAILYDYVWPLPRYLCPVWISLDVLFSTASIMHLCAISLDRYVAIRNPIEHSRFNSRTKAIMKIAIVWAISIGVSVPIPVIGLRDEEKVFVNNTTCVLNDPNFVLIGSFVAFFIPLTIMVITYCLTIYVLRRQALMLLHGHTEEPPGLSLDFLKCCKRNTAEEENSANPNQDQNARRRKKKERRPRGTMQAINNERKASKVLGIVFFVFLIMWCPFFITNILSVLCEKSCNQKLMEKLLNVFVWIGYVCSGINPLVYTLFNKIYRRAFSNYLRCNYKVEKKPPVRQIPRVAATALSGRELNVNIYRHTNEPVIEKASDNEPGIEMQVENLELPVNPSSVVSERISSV
Experimental: The agonist efficacy at the 5-HT2C receptor of the compounds in the Examples was determined by the ability of each compound to mobilise intracellular calcium in transfected HEK293 cells, stably expressing the human 5-HT2C receptor protein, using the calcium-chelating fluorescent dye FLUO-3 (Sigma, St. Louis, Mo., U.S.A.).

human 5-HT2A receptor [2] = biological target: T2, human 5-HT2A receptor (Homo sapiens, UniProt P28223); assay: In vitro functional assay, intracellular calcium mobilisation in CHO cells; assay type: cell-based; conditions: for EC50: calcium mobilisation, CHO cells; for Efficacy 5-HT2A: maximum response at 1 μM relative to maximum response of 5-HT at 1 μM
T2 construct: expressed in transfected cells; host or cells: CHO cells
T2 sequence (P28223 whole entry): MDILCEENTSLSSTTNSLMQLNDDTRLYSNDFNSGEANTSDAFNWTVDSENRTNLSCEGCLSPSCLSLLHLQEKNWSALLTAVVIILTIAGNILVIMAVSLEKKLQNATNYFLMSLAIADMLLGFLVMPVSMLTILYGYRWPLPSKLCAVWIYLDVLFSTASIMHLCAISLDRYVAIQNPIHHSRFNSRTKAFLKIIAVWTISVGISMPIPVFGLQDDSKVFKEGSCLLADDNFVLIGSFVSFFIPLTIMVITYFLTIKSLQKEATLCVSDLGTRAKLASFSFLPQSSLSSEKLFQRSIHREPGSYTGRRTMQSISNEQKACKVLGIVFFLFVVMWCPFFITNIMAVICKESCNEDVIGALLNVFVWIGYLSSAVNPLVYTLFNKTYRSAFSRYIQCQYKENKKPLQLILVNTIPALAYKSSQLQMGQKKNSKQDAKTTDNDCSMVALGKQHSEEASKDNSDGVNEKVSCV
Experimental: (§1) The ability of the compounds to mobilise intracellular calcium at the 5HT2A and 5-HT2B receptors was determined similarly using CHO cells expressing the human 5-HT2A or human 5-HT2B receptors.
(§2) The maximum functional responses of the compounds, at 1 μM, at the 5-HT2A, 5-HT2B and 5-HT2C receptors are expressed relative to the maximum response of 5-HT (serotonin) at a concentration of 1 μM.

human 5-HT2B receptor [3] = biological target: T3, human 5-HT2B receptor (Homo sapiens, UniProt P41595); assay: as above; assay type: cell-based; conditions: for EC50: calcium mobilisation, CHO cells; for Efficacy 5-HT2B: maximum response at 1 μM relative to maximum response of 5-HT at 1 μM
T3 construct: expressed in transfected cells; host or cells: CHO cells
T3 sequence (P41595 whole entry): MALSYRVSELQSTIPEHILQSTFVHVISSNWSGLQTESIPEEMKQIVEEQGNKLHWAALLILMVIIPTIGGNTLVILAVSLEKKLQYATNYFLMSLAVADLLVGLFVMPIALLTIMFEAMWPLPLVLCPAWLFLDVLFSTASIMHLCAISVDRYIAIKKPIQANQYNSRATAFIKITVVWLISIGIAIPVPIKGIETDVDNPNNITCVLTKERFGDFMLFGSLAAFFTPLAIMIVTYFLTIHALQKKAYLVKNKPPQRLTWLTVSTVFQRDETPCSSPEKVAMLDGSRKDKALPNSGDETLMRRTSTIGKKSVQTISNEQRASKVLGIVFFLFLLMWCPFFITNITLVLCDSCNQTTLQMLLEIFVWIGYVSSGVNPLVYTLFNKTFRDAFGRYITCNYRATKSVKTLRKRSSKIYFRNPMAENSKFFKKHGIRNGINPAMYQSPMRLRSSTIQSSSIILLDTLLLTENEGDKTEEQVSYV
Experimental: as §1, §2

human 5-HT2C receptor [4] = biological target: T1, human 5-HT2C receptor; assay: Affinity assay, displacement of 3H-5-HT, membranes of transfected HEK293 cells, Scintillation Proximity Assay; assay type: binding; conditions: 3H-5-HT radioligand
Experimental: The receptor affinity of compounds in the Examples was determined in competition experiments, where the ability of each compound in serial dilution to displace ^3H-labelled 5-HT, bound to membranes prepared from a transfected HEK293 cell line stably expressing the human 5-HT2C receptor protein, was monitored by Scintillation Proximity Assay technology. Non-specific binding was defined using 5 μM mianserin.

human 5-HT1A receptor = biological target: T4, human 5-HT1A receptor (Homo sapiens, UniProt P08908); assay: Affinity assay, displacement of 3H-8-OH-DPAT, CHO cell line; assay type: binding; conditions: 3H-8-OH-DPAT radioligand, CHO cells
T4 construct: expressed in transfected cells; host or cells: CHO cell line
T4 sequence (P08908 1-422): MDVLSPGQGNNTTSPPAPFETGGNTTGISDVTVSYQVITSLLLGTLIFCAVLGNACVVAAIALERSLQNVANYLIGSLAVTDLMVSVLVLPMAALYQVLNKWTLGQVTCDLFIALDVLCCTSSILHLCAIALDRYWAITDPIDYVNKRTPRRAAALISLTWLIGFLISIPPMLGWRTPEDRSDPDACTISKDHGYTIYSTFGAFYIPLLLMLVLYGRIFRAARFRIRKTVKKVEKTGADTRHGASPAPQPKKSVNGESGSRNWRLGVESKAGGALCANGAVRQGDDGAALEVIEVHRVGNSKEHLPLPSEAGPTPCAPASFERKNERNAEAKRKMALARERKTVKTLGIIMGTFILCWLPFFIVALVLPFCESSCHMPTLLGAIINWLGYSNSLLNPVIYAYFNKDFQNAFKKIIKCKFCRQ
Experimental: (§3) The binding affinities of the compounds for the human 5-HT2A and 5-HT2B receptors in CHO cell lines were determined using ^3H-labelled lysergic acid diethyl amide (LSD) and 5-HT, respectively, as radioligands. The binding affinities of the compounds for the human 5-HT1A and 5-HT1B receptors in CHO cell lines were determined similarly using ^3H-labelled 8-hydroxy-2-(di-n-propylamino)tetralin (8-OH-DPAT) and 5-HT, respectively, as radioligands.

human 5-HT2A receptor [5] = biological target: T2, human 5-HT2A receptor; assay: Affinity assay, displacement of 3H-LSD, CHO cell line; assay type: binding; conditions: 3H-LSD radioligand, CHO cells
Experimental: as §3

human 5-HT1B receptor = biological target: T5, human 5-HT1B receptor (Homo sapiens, UniProt P28222); assay: Affinity assay, displacement of 3H-5-HT, CHO cell line; assay type: binding; conditions: 3H-5-HT radioligand, CHO cells
T5 construct: expressed in transfected cells; host or cells: CHO cell line
T5 sequence (P28222 whole entry): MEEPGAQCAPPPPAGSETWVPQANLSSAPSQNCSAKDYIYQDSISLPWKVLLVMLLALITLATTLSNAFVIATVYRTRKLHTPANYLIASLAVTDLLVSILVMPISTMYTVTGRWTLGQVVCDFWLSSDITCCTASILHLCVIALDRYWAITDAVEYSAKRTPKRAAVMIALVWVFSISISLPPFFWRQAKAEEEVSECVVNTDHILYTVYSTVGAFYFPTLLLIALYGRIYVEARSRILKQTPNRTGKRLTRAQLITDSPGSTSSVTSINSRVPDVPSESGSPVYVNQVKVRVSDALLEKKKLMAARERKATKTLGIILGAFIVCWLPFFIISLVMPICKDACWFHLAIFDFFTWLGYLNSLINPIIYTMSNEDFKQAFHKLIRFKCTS
Experimental: as §3

human 5-HT2B receptor [6] = biological target: T3, human 5-HT2B receptor; assay: as above; assay type: binding; conditions: 3H-5-HT radioligand, CHO cells
Experimental: as §3

SMILES | melting point [°C] | EC50 (human 5-HT2C receptor [1]) [µM] | Efficacy 5-HT2C (human 5-HT2C receptor [1]) [%] | EC50 (human 5-HT2A receptor [2]) [µM] | Efficacy 5-HT2A (human 5-HT2A receptor [2]) [%] | EC50 (human 5-HT2B receptor [3]) [µM] | Efficacy 5-HT2B (human 5-HT2B receptor [3]) [%] | Ki (human 5-HT2C receptor [4]) [µM] | Ki (human 5-HT1A receptor) [µM] | Ki (human 5-HT2A receptor [5]) [µM] | Ki (human 5-HT1B receptor) [µM] | Ki (human 5-HT2B receptor [6]) [µM]
C[C@@H]1CNCCN1c1nccnc1OCCOc1cccnc1OCCN(C)C (as salt: acetate) [Example 1, N,N-Dimethyl-(2-(3-[2-(2-(R)-methyl-3,4,5,6-tetrahydro-2H-[1,2′]bipyrazinyl-3′-yloxy)-ethoxy]-pyridin-2-yloxy)-ethyl)-amine] | 75 |  |  |  |  |  |  |  |  |  |  | 
CC(C)N(CCOc1ncccc1OCCOc1nccnc1N1CCNC[C@H]1C)C(C)C (as salt: acetate) [Example 2, N,N-Diisopropyl-(2-(3-[2-(2-(R)-methyl-3,4,5,6-tetrahydro-2H-[1,2′]bipyrazinyl-3′-yloxy)-ethoxy]-pyridin-2-yloxy)-ethyl)-amine] | 87 |  |  |  |  |  |  |  |  |  |  | 
C[C@@H]1CNCCN1c1nccnc1OCCOc1cccnc1OCCN(C)C [Example 1, N,N-Dimethyl-(2-(3-[2-(2-(R)-methyl-3,4,5,6-tetrahydro-2H-[1,2′]bipyrazinyl-3′-yloxy)-ethoxy]-pyridin-2-yloxy)-ethyl)-amine] |  | 0.0042 | 117 | 1.2 | 14 | 1.94 | 16 | 0.012 | 0.8 | > 1 | > 1 | > 1
CC(C)N(CCOc1ncccc1OCCOc1nccnc1N1CCNC[C@H]1C)C(C)C [Example 2, N,N-Diisopropyl-(2-(3-[2-(2-(R)-methyl-3,4,5,6-tetrahydro-2H-[1,2′]bipyrazinyl-3′-yloxy)-ethoxy]-pyridin-2-yloxy)-ethyl)-amine] |  | 0.0039 | 111 | 0.26 | 40 | 0.9 | 33 | 0.01 | 0.38 | > 1 | 0.2 | > 1
